Reference: patent US9452997B2, “Piperidine and piperazine derivatives as autotaxin inhibitors” (Merck Patent GmbH, priority 2009, dated 2016)

These compounds were tested against T1, Recombinant autotaxin (Homo sapiens, UniProt Q13822) (assay: Autotaxin assay (Amplex Red, LPC substrate)). Settings: % of control at 1E−05 (compound concentration); uninhibited control = 100%.
T1 construct: made in house; host or cells: Hi5 insect cells (baculovirus)
Assay type: biochemical
Description: Autotaxin activity is measured indirectly by means of Amplex Red Reagent. In this course, Amplex Red is measured as fluorogenic indicator for generated H2O2. Autotaxin converts substrate lysophosphatidylcholine (LPC) to phosphocholine and lysophosphatidylic acid (LPA). After the conversion phosphocholine is reacted with alkaline phosphatase to obtain inorganic phosphate and choline. During the next step choline is oxidized with choline oxidase to yield betaine, whereby H2O2 is generated. H2O2 reacts with Amplex Red Reagent in the presence of peroxidase (Horseradish peroxidase) in an 1:1 stochiometry and yields highly fluorescent resorufin. The generated fluorescence is measured in a reaction-dependent kinetic mode in order to enable subtraction of fluorescence signals of possible other fluorescent compounds that are not part of the reaction from total measured fluorescence.
1.5 μl of a standard solution or of the compounds of the invention are dissolved in 20 mM Hepes pH 7.2 with maximally 7.7% DMSO in individual concentrations. The resulting solution is pre-incubated together with 10 μl (16 ng) of highly purified recombinant autotaxin in a black 384-hole microtiter plate for 30 min at 22° C.
Thereafter, the reaction is started through the addition of 5 μL-a-lysophosphatidyl-choline (LPC), whereby the final concentration of LPC is 75 μM. The mixture is incubated for 90 min. at 37° C. After the incubation Amplex Red Reagent, peroxidase (Horseradish peroxidase) and choline oxidase are added. The fluorescence is immediately measured at a wavelength of 612 nm with an excitation wavelength of 485 nm in a “Tecan Ultra multimode” fluorescence reader. The activity of autotaxin is indirectly calculated via the amount of detected generated H2O2.
For IC50 analysis, ten serial 1:3 dilutions starting at 30 μM for each compound were run in duplicates.
IC50 values were calculated on normalized data. For normalization, control wells were added to each assay plate and the signal of uninhibited control wells was set to 100%, whereas the signal inhibited by 500 μM C14 LPA, (Avanti Polar Lipids, Cat#857120P) was set to 0%. Curves were fitted and IC50 values calculated by the following model using proprietory analysis software: Y=Bottom+(100−Bottom)/(1+10^((Log IC50−X)*HillSlope)) Where X is the logarithm of concentration. Y is the response; Y starts at Bottom and goes to Top with a sigmoid shape. Material
Microtiter plate: PS-Microplate, 384-hole, small volume, black Corning, Cat#3677
Protein: Recombinant autotaxin (baculoviral Hi5 expression)
Substrate: L-a-lysophosphatidyl choline (chicken egg); Avanti Polar Lipids #830071P
Standard: C14 LPA, Avanti Polar Lipids, Cat#857120P
Detection Reagent: Amplex Red Reagent; Invitrogen #A12222; dissolved in 1.923 ml of DMSO peroxidase Type VI-A (horseradish), Sigma #P6782; dissolved in 7.45 ml of test buffer, Choline Oxidase; Sigma #C5896; dissolved in 2.47 ml test buffer
Detection Reagent Mix: 1:100 dilution of Amplex Red Regent in test buffer
Test buffer: 200 mM Tris-HCl, Merck, Cat #1.08219, pH 7.9; 0.1% BSA, lipid free, Roche Cat#775835

Structure (SMILES) | % CTRL (1E−05) [%]
N#Cc1ccc(CCC(=O)N2CCC(N3CCN(C(=O)c4ccc5[nH]nnc5c4)CC3)CC2)cc1 [Compound 94, 4-(3-{4-[4-(1H-Benzotriazole-5-carbonyl)-piperazin-1-yl]-piperidin-1-yl}-3-oxo-propyl)-benzonitrile] | 77

Same assay, conditions: recombinant autotaxin, LPC substrate, Amplex Red detection; values given as upper bounds

Structure (SMILES) | IC50 [µM]
O=C(OCc1ccc2c(c1)OCCO2)N1CCN(C2CCN(C(=O)c3ccc4[nH]nnc4c3)CC2)CC1 [Compound 137, 4-[1-(1H-Benzotriazole-5-carbonyl)-piperidin-4-yl]-piperazine-1-carboxylic acid 2,3-dihydro-benzo[1,4]dioxin-6-ylmethyl ester] | < 10
O=C(OCc1ccc(C(F)(F)F)c(Cl)c1)N1CCN(C2CCN(C(=O)c3ccc4[nH]nnc4c3)CC2)CC1 [Compound 96, 4-[1-(1H-Benzotriazole-5-carbonyl)-piperidin-4-yl]-piperazine-1-carboxylic acid 3-chloro-4-trifluoromethyl-benzyl ester] | < 1
O=C(CCc1ccccc1O)N1CCC(C2CCN(C(=O)c3ccccc3-c3cccc(C(F)(F)F)c3)CC2)CC1 [Compound 1, 3-(2-Hydroxy-phenyl)-1-[1′-(3′-trifluoromethyl-biphenyl-2-carbonyl)-[4,4′]bipiperidinyl-1-yl]-propan-1-one] | < 1
Cc1ccc(COC(=O)N2CCN(C3CCN(C(=O)c4ccc5[nH]nnc5c4)CC3)CC2)cc1C(F)(F)F [Compound 119, 4-[1-(1H-Benzotriazole-5-carbonyl)-piperidin-4-yl]-piperazine-1-carboxylic acid 4-methyl-3-trifluoromethyl-benzyl ester] | < 10
O=C(Cc1ccc2[nH]nnc2c1)N1CCC(N2CCN(C(=O)Cc3ccc(C(F)(F)F)cc3)CC2)CC1 [Compound 138, 2-(1H-Benzotriazol-5-yl)-1-(4-{4-[2-(4-trifluoromethyl-phenyl)-acetyl]-piperazin-1-yl}-piperidin-1-yl)-ethanone] | < 10
CC(C)c1ccc(CCC(=O)N2CCC(N3CCN(C(=O)c4ccc5[nH]nnc5c4)CC3)CC2)cc1 [Compound 84, 1-{4-[4-(1H-Benzotriazole-5-carbonyl)-piperazin-1-yl]-piperidin-1-yl}-3-(4-isopropyl-phenyl)-propan-1-one] | < 1
O=C(OCc1cc(Cl)cc(C(F)(F)F)c1)N1CCC(N2CCN(C(=O)c3ccc4[nH]nnc4c3)CC2)CC1 [Compound 77, 4-[4-(1H-Benzotriazole-5-carbonyl)-piperazin-1-yl]-piperidine-1-carboxylic acid 3-chloro-5-trifluoromethyl-benzyl ester] | < 1
O=C(OCc1ccc(C(F)(F)F)cc1)N1CCN(C2CCN(C(=O)c3ccc4[nH]c(=O)sc4c3)CC2)CC1 [Compound 126, 4-[1-(2-Oxo-2,3-dihydro-benzothiazole-6-carbonyl)-piperidin-4-yl]-piperazine-1-carboxylic acid 4-trifluoromethyl-benzyl ester] | < 10
O=C(OCc1ccc(Cl)cc1F)N1CCC(N2CCN(C(=O)c3ccc4[nH]nnc4c3)CC2)CC1 [Compound 62, 4-[4-(1H-Benzotriazole-5-carbonyl)-piperazin-1-yl]-piperidine-1-carboxylic acid 4-chloro-2-fluoro-benzyl ester] | < 1
O=C(OCc1cccc(Cl)c1)N1CCN(C2CCN(C(=O)c3ccc4[nH]nnc4c3)CC2)CC1 [Compound 41, 4-[1-(1H-Benzotriazole-5-carbonyl)-piperidin-4-yl]-piperazine-1-carboxylic acid 3-chloro-benzyl ester] | < 1
O=C(/C=C/c1cc(Cl)cc(Cl)c1)N1CCC(N2CCN(C(=O)c3ccc4[nH]nnc4c3)CC2)CC1 [Compound 90, (E)-1-{4-[4-(1H-Benzotriazole-5-carbonyl)-piperazin-1-yl]-piperidin-1-yl}-3-(3,5-dichloro-phenyl)-propenone] | < 1
O=C(Cc1ccc2[nH]nnc2c1)N1CCC(N2CCN(C(=O)OCc3cc(C(F)(F)F)cc(C(F)(F)F)c3)CC2)CC1 [Compound 139, 4-[1-(2-1H-Benzotriazol-5-yl-acetyl)-piperidin-4-yl]-piperazine-1-carboxylic acid 3,5-bis-trifluoromethyl-benzyl ester] | < 1
O=C(Cc1ccc(Cl)cc1)N1CCC(C2CCN(C(=O)c3ccc4[nH]nnc4c3)CC2)CC1 [Compound 23, 1-[1′-(1H-Benzotriazole-5-carbonyl)-[4,4′]bipiperidinyl-1-yl]-2-(4-chloro-phenyl)-ethanone] | < 30
O=C(OCc1cc(C(F)(F)F)cc(C(F)(F)F)c1)N1CCN(C2CCN(C(=O)c3ccc4[nH]nnc4c3)CC2)C(=O)C1 [Compound 184, 4-[1-(1H-Benzotriazole-5-carbonyl)-piperidin-4-yl]-3-oxo-piperazine-1-carboxylic acid 3,5-bis-trifluoromethyl-benzyl ester] | < 1
O=C(OCc1ccc(Br)cc1F)N1CCN(C2CCN(C(=O)c3ccc4[nH]nnc4c3)CC2)CC1 [Compound 156, 4-[1-(1H-Benzotriazole-5-carbonyl)-piperidin-4-yl]-piperazine-1-carboxylic acid 4-bromo-2-fluoro-benzyl ester] | < 10
O=C(OCc1ccc(Cl)c(Cl)c1)N1CCC(N2CCN(C(=O)c3ccc4[nH]nnc4c3)CC2)CC1 [Compound 85, 4-[4-(1H-Benzotriazole-5-carbonyl)-piperazin-1-yl]-piperidine-1-carboxylic acid 3,4-dichloro-benzyl ester] | < 1
CC(C)c1ccc(COC(=O)N2CCC(N3CCN(C(=O)c4ccc5[nH]nnc5c4)CC3)CC2)cc1 [Compound 87, 4-[4-(1H-Benzotriazole-5-carbonyl)-piperazin-1-yl]-piperidine-1-carboxylic acid 4-isopropyl-benzyl ester] | < 1
O=C(Nc1ccc(-n2cccn2)cc1)C1CC(=O)N(C2CCN(C(=O)OCc3cc(Cl)cc(Cl)c3)CC2)C1 (centres unmarked) [Compound 55, 4-[2-Oxo-4-(4-pyrazol-1-yl-phenylcarbamoyl)-pyrrolidin-1-yl]-piperidine-1-carboxylic acid 3,5-dichloro-benzyl ester] | < 10
O=C(NC1CCC(N2CCN(C(=O)OCc3ccccc3)CC2)CC1)c1ccc2[nH]nnc2c1 (centres unmarked) [Compound 185, 4-{4-[(1H-Benzotriazole-5-carbonyl)-amino]-cyclohexyl}-piperazine-1-carboxylic acid benzyl ester] | < 30
O=C(NCCc1c[nH]cn1)C1CC(=O)N(C2CCN(C(=O)OCc3cc(Cl)cc(Cl)c3)CC2)C1 (centres unmarked) [Compound 53, 4-{4-[2-(1H-Imidazol-4-yl)-ethylcarbamoyl]-2-oxo-pyrrolidin-1-yl}-piperidine-1-carboxylic acid 3,5-dichloro-benzyl ester] | < 10
O=C(Nc1ccc2[nH]c(=O)oc2c1)c1cncc(N2CCN(C(=O)OCc3ccc(Cl)cc3)CC2)c1 [Compound 5, 4-[5-(2-Oxo-2,3-dihydro-benzooxazol-6-ylcarbamoyl)-pyridin-3-yl]-piperazine-1-carboxylic acid 4-chloro-benzyl ester] | < 10
CC(C)c1ccc(COC(=O)N2CCN(C3CCN(C(=O)c4ccc5[nH]nnc5c4)CC3)CC2)cc1 [Compound 43, 4-[1-(1H-Benzotriazole-5-carbonyl)-piperidin-4-yl]-piperazine-1-carboxylic acid 4-isopropyl-benzyl ester] | < 1
